Laboratory results taken from patent US6737383B1, “Herbicidal oxadiazolidines” (priority 1999, dated 2004).

Columns and labels:
cocklebur = experiment: Test B pre/postemergence cocklebur; format: in vivo, Xanthium strumarium
Outline: (§1)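 Herbicidal effect was estimated by eye on a ten-point control scale after plants spent twelve to sixteen days in a greenhouse following soil or foliar treatment. Foliar sprays targeted plants at one to four leaves; all doses were formulated in a non-phytotoxic solvent with surfactant.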

sugar beet = experiment: Test B pre/postemergence sugar beet; format: in vivo, Beta vulgaris
Outline: as §1

purple nutsedge = experiment: Test B pre/postemergence purple nutsedge; format: in vivo, Cyperus rotundus
Outline: as §1

giant foxtail = experiment: Test B pre/postemergence giant foxtail; format: in vivo, Setaria faberii
Outline: as §1

wild oat = experiment: Test B pre/postemergence wild oat; format: in vivo, Avena fatua
Outline: as §1

wheat = experiment: Test B pre/postemergence wheat; format: in vivo, Triticum aestivum
Outline: as §1

duck salad = experiment: Test B flood test duck salad; format: in vivo, Heteranthera limosa
Outline: (§2)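 Plants were grown to the 2-leaf stage before treatment with test chemical, then held in a greenhouse for twelve to sixteen days. Injury was visually rated against untreated controls on a 0–10 scale, where 0 is no effect and 10 is complete control.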

velvetleaf = experiment: Test B pre/postemergence velvetleaf; format: in vivo, Abutilon theophrasti
Outline: as §1

pigweed = experiment: Test B pre/postemergence pigweed; format: in vivo, Amaranthus retroflexus
Outline: as §1

smallflower flatsedge = experiment: Test B flood test smallflower flatsedge; format: in vivo, Cyperus difformis
Outline: as §2

corn = experiment: Test B pre/postemergence corn; format: in vivo, Zea mays
Outline: as §1

rice = experiment: Test B flood test rice; format: in vivo, Oryza sativa
Outline: as §2

bedstraw = experiment: Test B pre/postemergence bedstraw; format: in vivo, Galium aparine; details: Postemergence
Outline: as §1

soybean = experiment: Test B pre/postemergence soybean; format: in vivo, Glycine max
Outline: as §1

surinam grass = experiment: Test B pre/postemergence surinam grass; format: in vivo, Brachiaria decumbens
Outline: as §1

rape = experiment: Test B pre/postemergence rape; format: in vivo, Brassica napus
Outline: as §1

[1] = Postemergence, Rate 250 g/ha, scale 0 to 10
[2] = Postemergence, Rate 500 g/ha, scale of 0 to 10 where 0 is no effect and 10 is complete control
[3] = Preemergence, Rate 62 g/ha, scale 0 to 10 (0 no effect, 10 complete control)
[4] = Preemergence, Rate 125 g/ha, scale of 0 to 10 where 0 is no effect and 10 is complete control
[5] = Preemergence, Rate 250 g/ha, scale 0 to 10, 0 is no effect, 10 is complete control
[6] = Preemergence, Rate 500 g/ha, scale 0 to 10, 0 is no effect, 10 is complete control
[7] = Rate 62 g/ha, Postemergence, scale of 0 to 10 where 0 is no effect and 10 is complete control
[8] = Rate 125 g/ha, Postemergence, scale 0 to 10, 0 is no effect, 10 is complete control
[9] = Postemergence block (flood test species), Rate 250 g/ha, scale 0 to 10
[10] = Postemergence section (flood test species), Rate 500 g/ha, scale of 0 to 10 where 0 is no effect and 10 is complete control
[11] = Rate 125 g/ha, Postemergence section (flood test species), scale 0 to 10, 0 is no effect, 10 is complete control

C=CC[Si](C)(C)Cn1c(=O)on(C(=O)N(c2ccc(F)cc2)C(C)C)c1=O [Compound 426]
Cocklebur plant response rating (cocklebur; [1]): 0
Cocklebur plant response rating (cocklebur; [2]): 0
Plant response rating, Cocklebur (cocklebur; [3]): 0
Plant response rating, Cocklebur (cocklebur; [4]): 0
Cocklebur plant response rating (cocklebur; [5]): 0
Cocklebur plant response rating (cocklebur; [6]): 0
Cocklebur plant response rating (cocklebur; [7]): 0
Cocklebur plant response rating (cocklebur; [8]): 0
Sugarbeets plant response rating (sugar beet; [1]): 3
Sugarbeets plant response rating (sugar beet; [2]): 3
Plant response rating, Sugarbeets (sugar beet; [3]): 0
Plant response rating, Sugarbeets (sugar beet; [4]): 3
Sugarbeets plant response rating (sugar beet; [5]): 4
Sugarbeets plant response rating (sugar beet; [6]): 6
Sugarbeets plant response rating (sugar beet; [8]): 3
Nutsedge plant response rating (purple nutsedge; [1]): 0
Nutsedge plant response rating (purple nutsedge; [2]): 3
Plant response rating, Nutsedge (purple nutsedge; [3]): 0
Plant response rating, Nutsedge (purple nutsedge; [4]): 0
Nutsedge plant response rating (purple nutsedge; [5]): 0
Nutsedge plant response rating (purple nutsedge; [6]): 0
Nutsedge plant response rating (purple nutsedge; [8]): 0
Giant foxtail plant response rating (giant foxtail; [1]): 9
Giant foxtail plant response rating (giant foxtail; [2]): 9
Plant response rating, Giant foxtail (giant foxtail; [3]): 9
Plant response rating, Giant foxtail (giant foxtail; [4]): 9
Giant foxtail plant response rating (giant foxtail; [5]): 10
Giant foxtail plant response rating (giant foxtail; [6]): 10
Giant foxtail plant response rating (giant foxtail; [7]): 3
Giant foxtail plant response rating (giant foxtail; [8]): 7
Wild oats plant response rating (wild oat; [1]): 2
Wild oats plant response rating (wild oat; [2]): 2
Plant response rating, Wild oats (wild oat; [3]): 2
Plant response rating, Wild oats (wild oat; [4]): 7
Wild oats plant response rating (wild oat; [5]): 8
Wild oats plant response rating (wild oat; [6]): 10
Wild oats plant response rating (wild oat; [8]): 0
Wheat plant response rating (wheat; [1]): 0
Wheat plant response rating (wheat; [2]): 2
Plant response rating, Wheat (wheat; [3]): 0
Plant response rating, Wheat (wheat; [4]): 0
Wheat plant response rating (wheat; [5]): 2
Wheat plant response rating (wheat; [6]): 6
Wheat plant response rating (wheat; [8]): 0
Ducksalad plant response rating (duck salad; [9]): 0
Ducksalad plant response rating (duck salad; [10]): 0
Ducksalad plant response rating (duck salad; Rate 62 g/ha, Postemergence (flood test species), scale of 0 to 10 where 0 is no effect and 10 is complete control): 0
Ducksalad plant response rating (duck salad; [11]): 0
Velvetleaf plant response rating (velvetleaf; [1]): 1
Velvetleaf plant response rating (velvetleaf; [2]): 2
Plant response rating, Velvetleaf (velvetleaf; [3]): 0
Plant response rating, Velvetleaf (velvetleaf; [4]): 2
Velvetleaf plant response rating (velvetleaf; [5]): 2
Velvetleaf plant response rating (velvetleaf; [6]): 5
Velvetleaf plant response rating (velvetleaf; [8]): 0
Redroot pigweed plant response rating (pigweed; [1]): 5
Redroot pigweed plant response rating (pigweed; [2]): 6
Plant response rating, Redroot pigweed (pigweed; [3]): 2
Plant response rating, Redroot pigweed (pigweed; [4]): 4
Redroot pigweed plant response rating (pigweed; [5]): 8
Redroot pigweed plant response rating (pigweed; [6]): 10
Redroot pigweed plant response rating (pigweed; [8]): 0
S. Flatsedge plant response rating (smallflower flatsedge; [9]): 0
S. Flatsedge plant response rating (smallflower flatsedge; [10]): 0
S. Flatsedge plant response rating (smallflower flatsedge; [11]): 0
Corn plant response rating (corn; [1]): 2
Corn plant response rating (corn; [2]): 4
Plant response rating, Corn (corn; [3]): 0
Plant response rating, Corn (corn; [4]): 0
Corn plant response rating (corn; [5]): 0
Corn plant response rating (corn; [6]): 6
Corn plant response rating (corn; [7]): 0
Corn plant response rating (corn; [8]): 0
Rice plant response rating (rice; [9]): 0
Rice plant response rating (rice; [10]): 0
Rice plant response rating (rice; [11]): 0
Bedstraw plant response rating (bedstraw; Rate 250 g/ha, scale 0 to 10): 9
Bedstraw plant response rating (bedstraw; Rate 500 g/ha, scale of 0 to 10 where 0 is no effect and 10 is complete control): 9
Soybean plant response rating (soybean; [1]): 6
Soybean plant response rating (soybean; [2]): 7
Plant response rating, Soybean (soybean; [3]): 0
Plant response rating, Soybean (soybean; [4]): 0
Soybean plant response rating (soybean; [5]): 0
Soybean plant response rating (soybean; [6]): 0
Soybean plant response rating (soybean; [8]): 4
B. signalgrass plant response rating (surinam grass; Postemergence, Rate 250 g/ha, scale 0 to 10, 0 no effect, 10 complete control): 7
B. signalgrass plant response rating (surinam grass; [2]): 8
Plant response rating, B. signalgrass (surinam grass; [3]): 4
Plant response rating, B. signalgrass (surinam grass; [4]): 4
B. signalgrass plant response rating (surinam grass; [5]): 6
B. signalgrass plant response rating (surinam grass; Preemergence, Rate 500 g/ha, scale of 0 to 10 where 0 is no effect and 10 is complete control): 8
B. signalgrass plant response rating (surinam grass; [7]): 2
B. signalgrass plant response rating (surinam grass; [8]): 5
Rape plant response rating (rape; [1]): 2
Rape plant response rating (rape; [2]): 4
Plant response rating, Rape (rape; [3]): 0
Plant response rating, Rape (rape; [4]): 0
Rape plant response rating (rape; [5]): 8
Rape plant response rating (rape; [6]): 10
Rape plant response rating (rape; [8]): 0
